From patent US6620828B2, “Thiazole compounds and pharmaceutical compositions for inhibiting protein kinases and methods for their use” (Agouron Pharmaceuticals, Inc., priority 1999, dated 2003)
Values joined by “and” are separate entries in the source; they are usually repeats but may differ in a detail not shown here. Equal entries are not always repeated. Structures can show the parent of a compound that is named as a salt.

Columns and labels:
[1] = biological target: T1, FGF-R1 (Homo sapiens, UniProt P11362, C488A/C584S/L457V); assay: FGF-R spectrophotometric assay; assay type: biochemical; conditions: Table 3; % inh @ 1 uM; read-out: FGF-P Ki (nM) (% inh @ 1 uM)
T1 construct: starting from the endogenous methionine residue 456 to glutamate 766; made in house; host or cells: baculovirus vector expression system
Method: FGF-R1 Construct for Assay: The intracellular kinase domain of human FGF-R1 was expressed using the baculovirus vector expression system starting from the endogenous methionine residue 456 to glutamate 766, according to the residue numbering system of Mohammadi et al., Mol. Cell. Biol., 16, 977-989 (1996). In addition, the construct also has the following 3 amino acid substitutions: L457V, C488A, and C584S.
The spectrophotometric assay was carried out as described above for VEGF-R2, except for the following changes in concentration: FGF-R=50 nM, ATP=2 mM, and poly(E4Y1)=15 mM.

[2] = test system: lung cancer cells (line MV522); assay: Cancer cell proliferation (MV522) assay; assay type: cell-based; conditions: MV522, Table 3
[3] = biological target: T2, unphosphorylated VEGF-R2Δ50 (FLVK) (Homo sapiens, UniProt P35968, DEL940-989/E990V); assay: VEGF-R2 coupled spectrophotometric assay, unphosphorylated enzyme (FLVK); assay type: biochemical; conditions: Table 3; some entries 'Slow binder'
T2 construct: VEGF-R2Δ50 contains residues 806-939 and 990-1171; made in house; host or cells: baculovirus/insect cells
Summary of the method: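 Unphosphorylated VEGF-R2Δ50 (5 to 40 nM) with 20 mM poly(E4Y1), 3 mM ATP, 60 mM MgCl2, 2 mM MnCl2 in 200 mM Hepes pH 7.5. ADP production coupled via PK/LDH to NADH oxidation, read at 340 nm. Ki from activity at varying compound concentrations.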

[4] = test system: human umbilical vein endothelial cells (HUVEC); assay: HUVEC proliferation assay; assay type: cell-based; conditions: Homo sapiens, HUVEC, Table 3
Summary of the method: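 Readout was MTT dye reduction (A595) after 72 h of stimulation with VEGF at 6 ng/ml final. Compound, in 0.1% DMSO final, was added 1 h before VEGF to HUVEC starved 24 h in 1% FBS. % inhibition was scaled between VEGF-alone and unstimulated wells; IC50 was fitted from triplicate dose curves.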

[5] = biological target: T3, LCK tyrosine kinase (Homo sapiens, UniProt P06239, C224D/P223M); assay: LCK spectrophotometric assay; assay type: biochemical; conditions: Table 3, read-out: LCK (% inh @ 1 uM)
T3 construct: starting from amino acid residue 223 to the end of the protein at residue 509; made in house; host or cells: insect cells

[6] = biological target: T4, CHK1 (Homo sapiens, UniProt O14757); assay: CHK1 high-throughput screening; assay type: biochemical; conditions: read-out: % inhibition @ 20 μM, Table 4, repeated entries per example
T4 sequence (O14757 1-476): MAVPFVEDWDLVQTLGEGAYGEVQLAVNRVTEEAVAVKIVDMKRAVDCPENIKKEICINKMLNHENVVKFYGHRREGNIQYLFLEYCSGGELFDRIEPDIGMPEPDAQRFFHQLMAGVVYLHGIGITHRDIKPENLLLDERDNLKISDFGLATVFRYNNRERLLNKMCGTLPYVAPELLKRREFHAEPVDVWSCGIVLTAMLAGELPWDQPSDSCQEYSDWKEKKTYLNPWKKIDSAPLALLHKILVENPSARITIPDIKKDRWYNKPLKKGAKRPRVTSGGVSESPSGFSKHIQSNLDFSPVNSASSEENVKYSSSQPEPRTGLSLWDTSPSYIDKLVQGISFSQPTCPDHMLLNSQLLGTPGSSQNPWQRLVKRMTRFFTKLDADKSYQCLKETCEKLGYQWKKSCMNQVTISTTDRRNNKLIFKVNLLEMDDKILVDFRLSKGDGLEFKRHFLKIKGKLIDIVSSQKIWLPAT

[7] = biological target: T5, FAKcd409 (Homo sapiens, UniProt Q05397, P410T); assay: FAK HTS assay; assay type: biochemical; conditions: 10 uM compound, HTS Delphia assay
T5 construct: comprises residues methionine 409 to glutamate 689; made in house; host or cells: baculovirus vector expression system

[8] = biological target: CDK2/Cyclin A complex (Homo sapiens, UniProt P24941); assay: CDK2/Cyclin A assay; assay type: biochemical; conditions: Table 2
Summary of the method: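 Radiometric assay: 150 nM CDK2/cyclin A (insect-cell CDK2, truncated cyclin A) phosphorylates His-tagged Rb fragment (residues 386-928) with 25 μM ATP plus [32P]ATP, pH 7.4 HEPES, 2% DMSO, 30 °C for 20 min. Filter-captured product counted by phosphorimager; apparent Ki from competitive or tight-binding inhibition fits.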

[9] = biological target: T6, CDK4/Cyclin D3 complex (Homo sapiens, UniProt P11802); assay: CDK4/Cyclin D assay; assay type: biochemical; conditions: Table 2
T6 construct: made in house; host or cells: insect cells co-infected with baculovirus vectors
Summary of the method: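 Insect-cell-expressed CDK4/cyclin D3 (50 nM) phosphorylating His-tagged Rb fragment (residues 386-928) with 25 μM [^32P]ATP in HEPES pH 7.4, MgCl2, 2% DMSO; 20 min at 30 °C, EDTA stop. Filter-captured 32P by phosphorimager; apparent Ki from competitive or tight-binding inhibition fits.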

[10] = biological target: T7, phosphorylated VEGF-R2Δ50 (FLVK-P) (Homo sapiens, UniProt P35968, DEL940-989/E990V); assay: VEGF-R2 coupled spectrophotometric (FLVK-P) assay; assay type: biochemical; conditions: Table 3; at 50 nM
T7 construct: VEGF-R2Δ50 contains residues 806-939 and 990-1171; made in house; host or cells: baculovirus/insect cells
Summary of the method: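 Baculovirus-expressed human VEGF-R2Δ50 (residues 806-939/990-1171, E990V) was autophosphorylated with 3 mM ATP, 40 mM MgCl2 for 2 h at 4° C. ADP formation was coupled via PK/LDH to NADH oxidation, read at 340 nm, with 5.1 mM poly(E4Y1), 1 mM ATP, 25 mM MgCl2, Hepes pH 7.5. Ki came from activity across compound concentrations.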

T1 sequence (P11362 456-766 L457V/C488A/C584S): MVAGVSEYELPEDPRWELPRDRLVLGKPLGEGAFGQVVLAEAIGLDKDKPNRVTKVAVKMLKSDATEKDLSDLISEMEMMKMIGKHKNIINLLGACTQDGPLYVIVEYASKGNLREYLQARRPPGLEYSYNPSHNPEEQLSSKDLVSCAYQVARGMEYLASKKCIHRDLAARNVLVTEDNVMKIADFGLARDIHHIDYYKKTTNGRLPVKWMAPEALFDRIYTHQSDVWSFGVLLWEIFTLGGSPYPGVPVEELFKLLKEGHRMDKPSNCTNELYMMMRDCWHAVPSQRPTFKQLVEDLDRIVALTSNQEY
T5 sequence (Q05397 409-689 P410T): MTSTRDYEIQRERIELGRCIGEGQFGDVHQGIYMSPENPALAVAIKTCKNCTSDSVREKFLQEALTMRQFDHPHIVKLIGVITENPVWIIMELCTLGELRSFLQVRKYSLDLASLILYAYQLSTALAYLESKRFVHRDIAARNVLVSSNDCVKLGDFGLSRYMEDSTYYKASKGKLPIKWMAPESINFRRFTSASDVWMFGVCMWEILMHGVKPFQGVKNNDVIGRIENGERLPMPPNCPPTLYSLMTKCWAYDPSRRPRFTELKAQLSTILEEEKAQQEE
T2 sequence (P35968 with tags, fused parts or gaps DEL940-989/E990V limits assumed): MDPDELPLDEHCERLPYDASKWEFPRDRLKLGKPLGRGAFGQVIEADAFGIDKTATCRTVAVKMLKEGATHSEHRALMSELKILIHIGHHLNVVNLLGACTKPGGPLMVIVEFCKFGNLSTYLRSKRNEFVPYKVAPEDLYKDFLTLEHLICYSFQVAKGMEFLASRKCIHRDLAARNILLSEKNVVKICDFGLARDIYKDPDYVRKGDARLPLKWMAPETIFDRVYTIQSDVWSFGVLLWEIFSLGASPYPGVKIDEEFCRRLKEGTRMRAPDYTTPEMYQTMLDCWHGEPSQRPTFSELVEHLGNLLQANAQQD
T3 sequence (P06239 223-509 P223M/C224D): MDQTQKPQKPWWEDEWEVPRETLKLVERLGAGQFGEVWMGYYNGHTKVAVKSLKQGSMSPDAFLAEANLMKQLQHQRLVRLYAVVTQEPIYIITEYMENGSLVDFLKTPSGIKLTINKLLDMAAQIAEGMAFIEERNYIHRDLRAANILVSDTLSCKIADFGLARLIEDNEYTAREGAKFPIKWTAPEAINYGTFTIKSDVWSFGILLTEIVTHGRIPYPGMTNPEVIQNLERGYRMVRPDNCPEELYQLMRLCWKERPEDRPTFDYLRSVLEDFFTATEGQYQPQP
T7 sequence (P35968 with tags, fused parts or gaps DEL940-989/E990V limits assumed): as the sequence (P35968 with tags, fused parts or gaps DEL940-989/E990V limits assumed) above
T6 sequence (P11802 whole entry): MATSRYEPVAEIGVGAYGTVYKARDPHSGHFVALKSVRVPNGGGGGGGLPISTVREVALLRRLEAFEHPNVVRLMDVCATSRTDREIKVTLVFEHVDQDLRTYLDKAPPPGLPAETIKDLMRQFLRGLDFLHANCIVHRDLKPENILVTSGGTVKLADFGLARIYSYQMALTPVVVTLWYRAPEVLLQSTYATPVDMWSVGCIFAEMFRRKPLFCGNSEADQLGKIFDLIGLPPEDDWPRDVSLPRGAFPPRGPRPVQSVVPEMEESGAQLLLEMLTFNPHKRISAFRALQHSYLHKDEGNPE
T6 sequence (P30281 whole entry partner): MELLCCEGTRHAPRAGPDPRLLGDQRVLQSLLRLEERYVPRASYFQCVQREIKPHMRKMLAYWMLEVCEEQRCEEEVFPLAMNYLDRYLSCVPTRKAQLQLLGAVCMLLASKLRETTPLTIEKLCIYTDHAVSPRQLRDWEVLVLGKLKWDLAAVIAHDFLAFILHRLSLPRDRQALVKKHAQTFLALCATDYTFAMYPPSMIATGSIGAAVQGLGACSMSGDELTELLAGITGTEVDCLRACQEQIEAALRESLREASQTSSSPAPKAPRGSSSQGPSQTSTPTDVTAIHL

| Compound | inhibition at 1 µM [1] [%] | IC50 [2] [nM] | Ki [3] [nM] | inhibition at 1 µM [5] [%] | inhibition at 20 µM [6] [%] | % inhibition of FAK ([7]; 10 µM) | inhibition at 10 µM [7] [%] | Ki [8] [nM] | Ki [9] [nM] | inhibition at 0.05 µM [10] [%] | IC50 [4] [nM] |
| --- | --- | --- | --- | --- | --- | --- | --- | --- | --- | --- | --- |
| Cc1cccc(C(=O)Nc2cccc(-c3noc(-c4sc(NC(=O)NCCCN5CCOCC5)nc4N)n3)c2)c1 [O(12), N-[3-(5-{4-Amino-2-[3-(3-morpholin-4-yl-propyl)-ureido]-thiazol-5-yl}-[1,2,4]oxadiazol-3-yl)-phenyl]-3-methyl-benzamide] | 33 | 44000 | 0.19 | 21 | – | – | – | – | – | – | 45 |
| COc1cc(Nc2nc(N)c(-c3nc(-c4cc(NC(=O)OC(C)(C)C)ccc4Cl)no3)s2)cc(OC)c1OC [B(12), (3-{5-[4-Amino-2-(3,4,5-trimethoxy-phenylamino)-thiazol-5-yl]-[1,2,4]oxadiazoyl}-4-chloro-phenyl)-carbamic acid tert-butyl ester] | 52 | 3600 | 1.6 | 29 | – | – | – | – | – | – | 15 |
| Nc1nc(Nc2ccc3c(=O)[nH][nH]c(=O)c3c2)sc1-c1nc(-c2cccc(NC(=O)c3ccccc3)c2)cs1 [A(49), N-{3-[4′-Amino-2′-(1,4-dioxo-1,2,3,4-tetrahydro-phthalazin-6-ylamino)-[2,5′]bithiazolyl-4-yl]-phenyl}-benzamide] | – | – | – | – | 14.1 | −13% and −7% and −10% | – | – | – | – | – |
| COc1cccc(C(=O)Nc2ccc(F)c(-c3noc(-c4sc(Nc5cc(OC)c(OC)c(OC)c5)nc4N)n3)c2)c1 [D(72), 3-[2-fluoro-5-[(3-methoxybenzoyl)amino]-phenyl]-5-[2-[(3,4,5-trimethoxyphenyl)amino]-4-amino-5-thiazolyl]-1,2,4-oxadiazole] | 49 | > 10000 | 0.9 | 35 | – | – | – | – | – | – | 4.7 |
| CNC(=O)Nc1nc(N)c(-c2nc(-c3cccc(NC(=O)c4cccc(OC)c4)c3)cs2)s1 [F(11), N-{3-[4′-Amino-2′-(3-methyl-ureido)-[2,5′]bithiazolyl-4-yl]-phenyl}-3-methoxy-benzamide] | 25 | 9600 | 0.26 | 15 | – | – | – | – | – | – | 12 |
| COc1cc(Nc2nc(N)c(-c3nc(-c4cc(NC(=O)c5cccc(Cl)c5)c(F)cc4F)no3)s2)cc(OC)c1OC [D(66), N-(5-{5-[4-Amino-2-(3,4,5-trimethoxy-phenylamino)-thiazol-5-yl]-[1,2,4]oxadiazol-3-yl}-2,4-difluoro-phenyl)-3-chloro-benzamide] | 55 | > 10000 | 1 | 15 | – | – | – | – | – | – | 4.2 |

The next lines start with results.

| inhibition at 1 µM [1] [%] | IC50 [2] [nM] | Ki [3] [nM] | inhibition at 1 µM [5] [%] | inhibition at 20 µM [6] [%] | % inhibition of FAK ([7]; 10 µM) | inhibition at 10 µM [7] [%] | Ki [8] [nM] | Ki [9] [nM] | inhibition at 0.05 µM [10] [%] | Compound | IC50 [4] [nM] |
| --- | --- | --- | --- | --- | --- | --- | --- | --- | --- | --- | --- |
| 23 | > 10000 | 1.4 | 29 | – | – | – | – | – | – | COc1cc(Nc2nc(N)c(-c3nc(-c4cccc(NC(=O)c5cc(C)c(O)c(C)c5)c4)cs3)s2)cc(OC)c1OC [D(58), N-{3-[4′-Amino-2′-(3,4,5-trimethoxy-phenylamino)-[2,5′]bithiazolyl-4-yl]-phenyl}-4-hydroxy-3,5-dimethyl-benzamide] | > 100 |
| 78 | 2300 | 0.5 | 79 | – | – | – | – | – | – | COc1cc(Nc2nc(N)c(-c3nc(-c4cc(NC(=O)c5cccc(Cl)c5)c(F)cc4Cl)no3)s2)cc(OC)c1OC [D(69), N-(5-{5-[4-Amino-2-(3,4,5-trimethoxy-phenylamino)-thiazol-5-yl]-[1,2,4]oxadiazol-3-yl}-4-chloro-2-fluoro-phenyl)-3-chloro-benzamide] | 15 |
| 54 | 3100 | 2.8 | 44 | – | – | – | – | – | – | COc1cc(Nc2nc(N)c(-c3nc(-c4cccc(NC(=O)CC5CC6CCC5C6)c4)cs3)s2)cc(OC)c1OC (stereo not drawn) [D(59), N-{3-[4′-Amino-2′-(3,4,5-trimethoxy-phenylamino)-[2,5′]bithiazolyl-4-yl]-phenyl}-2-bicyclo[2.2.1]hept-2-yl-acetamide] | > 100 |
| 8 | 1900 | 0.9 | < 0 | – | – | – | – | – | – | COc1cccc(C(=O)Nc2cc(-c3noc(-c4sc(Nc5ccc(N6CCOCC6)nc5)nc4N)n3)c(F)cc2F)c1 [B(18), N-(5-{5-[4-Amino-2-(6-morpholin-4-yl-pyridin-3-ylamino)-thiazol-5-yl]-[1,2,4]oxadiazol-3-yl}-2,4-difluoro-phenyl)-3-methoxy-benzamide] | 10 |
| – | – | – | – | 1 | – | -6 | – | – | – | CCOC(=O)c1cccc(Nc2nc(N)c(-c3nc(-c4cccc(NC(=O)c5ccccc5)c4)cs3)s2)c1 [A(40), 3-[4′-Amino-4-(3-benzoylaminophenyl)-[2,5′]bithiazolyl-2′-ylamino]-benzoic acid ethyl ester] | – |
| – | – | – | – | – | – | -18 | 130 | 4500 | – | CCOC(=O)c1csc(-c2sc(Nc3ccc(S(N)(=O)=O)cc3)nc2N)n1 [A(68), Ethyl 4′-amino-2′-(4-sulfamoyl-phenylamino)-[2,5′]bithiazolyl-4-carboxylate] | – |
| 56 | 4450 | 1.2 | 41 | – | – | – | – | – | – | COc1cc(Nc2nc(N)c(-c3nc(-c4cc(NC(=O)c5cccc(Cl)c5)ccc4F)no3)s2)cc(OC)c1OC [D(73)] | 6 |
| 59 | > 10000 | 3.5 | 61 | – | – | – | – | – | 91 | COc1cccc(C(=O)Nc2cc(-c3noc(-c4sc(Nc5cc(OC)c(OC)c(OC)c5)nc4N)n3)c(Cl)cc2F)c1 [D(70), N-(5-{5-[4-Amino-2-(3,4,5-trimethoxy-phenylamino)-thiazol-5-yl]-[1,2,4]oxadiazol-3-yl}-4-chloro-2-fluoro-phenyl)-3-methoxy-benzamide TFA salt] | 5.4 |
| 46 | > 10000 | 0.76 | 10 | – | – | – | – | – | 13 | COc1cc(Nc2nc(N)c(-c3nc(-c4cc(NC(=O)OC(C)(C)C)c(F)cc4Cl)no3)s2)cc(OC)c1OC [B(14), (5-{5-[4-Amino-2-(3,4,5-trimethoxy-phenylamino)-thiazol-5-yl]-[1,2,4]oxadiazol-3-yl}-4-chloro-2-fluoro-phenyl)-carbamic acid tert-butyl ester] | 11 |
